Like-named read-outs stand apart in the source and are kept apart here. Each block holds one compound with its values, some of them ahead of it.
Experiments:
Hcrt-R1 WT and KO mice = assay: Nicotine self-administration assay (mice), with food self-administration; type: in vivo; details: for food self-administration (SA): KO and WT mice, systemic administration 30 min prior to the SA session; for nicotine SA: doses 0, 5 and 10 mg/kg
Text: To generate Hcrt-R1^+/+ and […] mice, breeding pairs of male and female Hcrt-R1^+/− mice that were backcrossed >10 generations on a C57BL/6 background were obtained from Jackson Laboratory (Bar Harbor, Me.). For all experiments, mice weighing 25-35 g were housed in groups of 2-3 per cage, in a temperature-controlled vivarium under a reversed 12-h light/dark cycle (lights off at 8 am). Food and water were provided ad libitum until behavioral training commenced. During training, mice were food-restricted to maintain ˜85-90% of their free-feeding body weight. Behavioral testing occurred during the dark portion of the light/dark cycle between the hours of 9 am-1 pm, during the early portion of the dark phase of the cycle. All procedures were conducted in strict adherence with the National Institutes of Health Guide for the Care and Use of Laboratory Animals and were approved by the Institutional Animal Care and Use Committee of The Scripps Research Institute.
Mice were anesthetized by inhalation of 1-3% isoflurane in oxygen and silastic catheters were inserted into the jugular veins. Briefly, the catheters consisted of a 6 cm length of silastic tubing fitted to a guide cannula (Plastics One, Wallingford, Conn.), bent at a curved right angle and encased in dental acrylic. The catheter tubing was passed subcutaneously from each animal's back to the right jugular vein, and 1 cm length of the catheter tip was inserted into the vein. After surgery, catheters were flushed daily with 0.1 ml of a heparinized (30 USP units/ml) sterile saline solution. Following 7 d of surgical recovery, mice were mildly food restricted to 85-90% of their free-feeding body weight and trained to press a lever in an operant chamber (Med Associates, St. Albans, Vt.) for food pellets (20 mg; TestDiet, Richmond, Ind.) under a fixed-ratio 5, time out 20-s (FR5TO20 s) schedule of reinforcement […]. Once stable responding was achieved (>25 pellets per session), mice were permitted to acquire IV nicotine self-administration by autoshaping during 1-h daily sessions, 7 days per week. Nicotine was delivered through the tubing into the IV catheter by a Razel syringe pump (Med Associates). […] After 1 week, the nicotine dose was increased to 0.1 mg/kg/inf for the remainder of the experiment, including subsequent training and test sessions. […] During the TO period, responding on the lever was recorded but without scheduled consequence. […]
For Hcrt-R1 re-expression studies, the human Hcrt-R1 gene was cloned into the pCDF1 lentivirus expression vector containing copGFP (GFP cloned from copepod Pontellina plumata) from Systems Biosciences. […] Viral supernatant titres were determined using the Lentivector Rapid Titer Kit from System Biosciences, according to the manufacturer's instructions. […]

OX1 = target: T1, OX1 (Homo sapiens, UniProt O43613); assay: Orexin receptor cell-based functional assay, [Ca2+]i by FLIPR, CHO-OX1 cells
T1 construct: expressed in transfected cells; host or cells: CHO (CHO-OX1, kept under selection antibiotic)
T1 sequence (O43613 1-425): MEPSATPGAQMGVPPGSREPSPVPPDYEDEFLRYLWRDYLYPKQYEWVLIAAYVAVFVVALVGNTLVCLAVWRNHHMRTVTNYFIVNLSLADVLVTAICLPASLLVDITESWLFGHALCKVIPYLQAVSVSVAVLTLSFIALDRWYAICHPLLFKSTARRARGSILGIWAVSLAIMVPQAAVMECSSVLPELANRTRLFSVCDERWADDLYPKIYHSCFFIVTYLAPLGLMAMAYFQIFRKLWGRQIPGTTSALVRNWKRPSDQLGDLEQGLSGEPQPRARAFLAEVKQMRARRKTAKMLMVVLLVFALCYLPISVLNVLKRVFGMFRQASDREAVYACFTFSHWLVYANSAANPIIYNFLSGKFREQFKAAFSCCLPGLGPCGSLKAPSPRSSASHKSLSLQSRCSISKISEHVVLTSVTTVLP
Summary of the method: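 CHO cells expressing human OX1 or OX2 loaded with calcium dye plus 2.5 mM probenecid at 37° C (calcium4, 30 min, or calcium6, 2 h), then exposed to compounds (0.1 nM-10 μM) for 30 min. Intracellular Ca2+ measured on FLIPR; antagonist format.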

CYP3A4 = target: T2, CYP3A4 (Homo sapiens, UniProt P08684); assay: Cytochrome P450 inhibition assay (midazolam hydroxylation); type: in vitro ADME; details: human, human liver microsomes, probe midazolam (hydroxylation to 1′-hydroxymidazolam), 10 μM test compound, midazolam at approximately its Km
T2 construct: pre-incubated with human liver microsomes and NADPH; from tissue; host or cells: human liver microsomes
Summary of the method: (§1)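 Human liver microsomes; CYP3A4 activity as midazolam 1′-hydroxylation with substrate near Km, with or without 10 μM test compound, read as percent inhibition. For time-dependent inhibition, parallel samples were preincubated 30 min with NADPH before substrate, and percent inhibition compared with non-preincubated samples.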

rats = assay: Nicotine self-administration assay (rats), with food responding; type: in vivo; details: several doses
Text: For all experiments, rats weighing 250-300 g were housed in groups of […] per cage, in a temperature-controlled vivarium under a reversed 12-h light/dark cycle (lights off at 8 am). Food and water were provided ad libitum until behavioral training commences. During training, rats were food-restricted to maintain ˜85-90% of their free-feeding body weight. Behavioral testing occurred during the dark portion of the light/dark cycle between the hours of 9 am-1 pm, during the early portion of the dark phase of the cycle. All procedures were conducted in strict adherence with the National Institutes of Health Guide for the Care and Use of Laboratory Animals and are approved by the Institutional Animal Care and Use Committee of The Scripps Research Institute.
Rats were anesthetized by inhalation of 1-3% isoflurane in oxygen and silastic catheters were inserted into the jugular veins. Briefly, the catheters consist of a 14 cm length of silastic tubing fitted to a guide cannula (Plastics One, Wallingford, Conn.), bent at a curved right angle and encased in dental acrylic. The catheter tubing was passed subcutaneously from each animal's back to the right jugular vein, and 1 cm length of the catheter tip was inserted into the vein. […] During the TO period, responding on the lever was recorded but without scheduled consequence. […]

[1] = target: T3, cytochrome P450 3A4 isoform (Homo sapiens, UniProt P08684); assay: Cytochrome P450 inhibition assay (midazolam hydroxylation); type: in vitro ADME; details: 10 μM test compound; midazolam at approximately its Km; human liver microsomes
T3 construct: pre-incubated with human liver microsomes and NADPH; from tissue; host or cells: human liver microsomes
Summary of the method: as §1

[2] = CHO-OX1 cells, [Ca2+]i by FLIPR, antagonist dose-range 0.1 nM-10 μM, EC90 of OXA, read-out: OX1

T3 sequence (P08684 whole entry, canonical isoform): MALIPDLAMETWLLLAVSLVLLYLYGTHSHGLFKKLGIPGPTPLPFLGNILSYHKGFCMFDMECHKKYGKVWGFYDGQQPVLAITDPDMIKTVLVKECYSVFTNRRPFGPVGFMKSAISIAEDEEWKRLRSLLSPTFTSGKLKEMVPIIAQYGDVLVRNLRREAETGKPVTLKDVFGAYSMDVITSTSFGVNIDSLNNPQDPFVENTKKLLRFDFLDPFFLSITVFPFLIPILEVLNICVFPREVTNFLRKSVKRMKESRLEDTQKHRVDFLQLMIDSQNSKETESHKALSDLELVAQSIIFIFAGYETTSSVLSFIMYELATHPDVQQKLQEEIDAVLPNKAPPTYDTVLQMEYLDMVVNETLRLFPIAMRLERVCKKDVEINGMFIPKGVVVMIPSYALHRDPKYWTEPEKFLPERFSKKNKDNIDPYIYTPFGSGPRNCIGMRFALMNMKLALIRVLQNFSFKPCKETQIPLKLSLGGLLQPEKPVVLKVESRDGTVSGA
T2 sequence (P08684 whole entry): as the sequence (P08684 whole entry, canonical isoform) above

- IC50 (OX1; Table 2, CHO-OX1 cells, EC90 of OXA, read-out: IC50 Bioactivity OX1): 8 nM
- IC50 (OX1; Table 6, racemate vs enantiomers, read-out: OX1 IC50): 8 nM
Structure (SMILES): Cc1nc(C(=O)N2CCC[C@@H](C)[C@H]2CNc2ccc(C(F)(F)F)cn2)c(-c2ccc(F)cc2)s1 (racemic) [Example 11, rac-cis-(5-(4-Fluorophenyl)-2-methylthiazol-4-yl)(3-methyl-2-(((5-(trifluoromethyl)pyridin-2-yl)amino)methyl)piperidin-1-yl)methanone]
- food self-administration (SA) (Hcrt-R1 WT and KO mice): no effect

- inhibition at 10 µM (CYP3A4): 98%
Structure (SMILES): Cc1ccc(-c2cnn(C)c2)c(C(=O)N2CCC[C@@H](C)[C@H]2CNc2ccc(C(F)(F)F)cn2)c1 [Example A1, ((2S,3R)-3-Methyl-2-(((5-(trifluoromethyl)pyridin-2-yl)amino)methyl)piperidin-1-yl)(5-methyl-2-(1-methyl-1H-pyrazol-4-yl)phenyl)methanone]
- food intake (rats): does not have a significant effect
- nicotine self-administration (rats): dose-dependent reduction

- IC50 (OX1; [2]): 8 nM
- % CYP3A4 Inhibition [1]: 65%
Structure (SMILES): C[C@@H]1CCCN(C(=O)c2cccc(F)c2-c2ncccn2)[C@@H]1CNc1ccc(Cl)cn1 [Example A232, ((2S,3R)-2-(((5-chloropyridin-2-yl)amino)methyl)-3-methylpiperidin-1-yl)(3-fluoro-2-(pyrimidin-2-yl)phenyl)methanone]

- IC50 (OX1; [2]): 24 nM
- % CYP3A4 Inhibition [1]: 87%
Structure (SMILES): C[C@@H]1CCCN(C(=O)c2cc(F)c(F)cc2-c2ncccn2)[C@@H]1CNc1ccc(C(F)(F)F)cn1 [Example A242, (4,5-Difluoro-2-(pyrimidin-2-yl)phenyl)((2S,3R)-3-methyl-2-(((5-(trifluoromethyl)pyridin-2-yl)amino)methyl)piperidin-1-yl)methanone]

Structure (SMILES): CC1(C)OC[C@H](NC(=O)Nc2ccc(Br)cc2Br)[C@H](c2ccccc2)O1 [JNJ10397049]
- food self-administration (SA) (Hcrt-R1 WT and KO mice): no effect
- nicotine SA (Hcrt-R1 WT and KO mice; KO mice): marginal decrease
- nicotine SA (Hcrt-R1 WT and KO mice; WT mice): no effect
